Experimental data taken from publication PMC6508865, “Dynamics of thymol dietary supplementation in quail (Coturnix japonica): Linking bioavailability, effects on egg yolk total fatty acids and performance traits” (PLoS ONE, 2019).

Tests used:
[1] = tested on: female Japanese quail (Coturnix japonica); test: General welfare quality assessment; format: in vivo; conditions: 2, 4, 6.25 g of THY/kg feed
Protocol: A welfare assessment based on observations of physical characteristics was made. Female skin lesions and plumage status were evaluated following a procedure proposed by Pellegrini et al. that is an adapted version of the protocol developed by the Welfare Quality consortium. Briefly, skin lesions, which include wounds that have not healed in the legs, rear end, chest, cloacae and wings were determined using a score scale from 0 to 2, where "0" represents no lesions or scratches, "1" represents at least one lesion < 0.5 cm diameter or less than 3 pecks (punctiform damage ~ 0.1 cm of diameter) or scratches, and "2" reflects one lesion ≥ 0.5 cm of diameter or more than 3 pecks or scratches. Plumage damage was also determined using a score scale from 0 to 2 as follows: "0" represents individuals with no plumage damage or slight wear (only single feathers lacking), "1" represent individuals with one or more body parts that have moderate wear (i.e. damaged feathers worn or deformed) or one or more featherless areas < 1.5 cm in diameter at the larger extent and "2" corresponded to individuals that have at least one featherless area > 1.5 cm in diameter at the largest extent. […]

[2] = tested on: female Japanese quail (Coturnix japonica); test: Liver histological analysis (histopathological index); format: in vivo
Text: A total of 50 eighty-five days-old female quail of homogeneous body weights (251 ± 1 g; Mean ± SE) and in their egg-laying peak were selected from an initial group of 96 female individuals. All birds continued receiving a basal diet between 85 and 100 days of age and all variables (see below for details) were registered along this period (Pre-supplementation period, Fig 1). From 100 to 128 days of age (S period, Fig 1), females were randomly assigned to either a chronic dietary supplementation with one of 3 THY doses (THY2, THY4 and THY6; 10 females each) or to one of 2 control groups (basal diet, BASAL, and basal diet with vehicle solution, VEHICLE; 10 females each). Once finished the S period, half of the quail were slaughtered for histological analysis (n = 25; Slaughter 1, Fig 1) and the other half were subjected to a pS period of 21 days, during which all females received the BASAL diet (pS, Fig 1). After this period, the remaining 25 animals were also slaughtered for histological analysis (Slaughter 2, Fig 1). In this way, we assessed whether THY induced changes in variables indicative of tissue damage and if so, whether the potential damages could reverse after 3 weeks of supplement withdrawal.
At each slaughter point birds were euthanized by decapitation and livers were removed and stored in buffered formalin at 10%, processed routinely and stained with hematoxylin and eosin (H&E) and periodic acid-Schiff (PAS). Each slide was examined blinded, with a light microscope (Olympus X-785) and photographed with a digital camera (Moticam Camera 2300, 3 Megapixels). To evaluate histological alterations of liver, tissue was divided into 8 random equal areas to ensure there was no overlapping of the studied areas. For each area, the extension and number of each alteration were recorded with a microscope at 40X magnitude. Histopathological index of liver (HIliv) were estimated using a semi-quantitative protocol following, modified by our colleagues. Briefly, alterations were classified into four major reaction patterns each one of those including alterations that concern to different functional units of the liver or to the whole organ: RP1, circulatory disturbances (dilatation of sinusoids, vascular congestion, hemorrhage); RP2, regressive changes (steatosis or fatty degeneration, hydropic degeneration, nuclear alteration, fibrosis, necrosis); RP3, progressive changes (oval cells, cell hypertrophy and hyperplasia); and RP4, liver inflammation (leukocyte infiltration). Then, for each RP, an index was calculated based on two factors: the pathological importance of the lesions (importance factor, W) (range 1–3) and the extension of pathological change (score value, a) from 0 (unchanged) to 8 (extreme occurrence). Finally, a total liver histopathological index (HIliv) was calculated by adding the single RP liver indices of each individual quail. A greater value of (HIliv) reflects the most severely affected individual.

[3] = overall mean over control and 2, 4, 6.25 g thymol/kg feed diets and two slaughter batches
[4] = overall mean over control and 2, 4, 6.25 g thymol/kg feed diets and two slaughter batches, no effect of diet

effect on general well-being [1]: did not affect
effect on histopathological features of the liver ([2]; 2, 4, 6.25 g of THY/kg feed, 28 days S and 21 days pS): did not affect
HILiv.Rp3 (liver histopathological index, progressive changes) [2, 3]: 0,80
HILiv.Rp4 (liver histopathological index, inflammation) [2, 3]: 0,27
HILiv (total liver histopathological index) [2, 4]: 22,58
HILiv.Rp2 (liver histopathological index, regressive changes) [2, 4]: 16,80
SMILES: Cc1ccc(C(C)C)c(O)c1 [THY, 2 isopropyl-5-methylphenol]
